28 molecules from ChEMBL document CHEMBL1201862, “PubChem BioAssay data set” (2004) can be followed below.

Structures are written as SMILES. The source made the active and inactive calls.

One test has as its target T1, Leucine aminopeptidase (Plasmodium falciparum 3D7, UniProt Q8IL11).
T1 sequence (Q8IL11 whole entry): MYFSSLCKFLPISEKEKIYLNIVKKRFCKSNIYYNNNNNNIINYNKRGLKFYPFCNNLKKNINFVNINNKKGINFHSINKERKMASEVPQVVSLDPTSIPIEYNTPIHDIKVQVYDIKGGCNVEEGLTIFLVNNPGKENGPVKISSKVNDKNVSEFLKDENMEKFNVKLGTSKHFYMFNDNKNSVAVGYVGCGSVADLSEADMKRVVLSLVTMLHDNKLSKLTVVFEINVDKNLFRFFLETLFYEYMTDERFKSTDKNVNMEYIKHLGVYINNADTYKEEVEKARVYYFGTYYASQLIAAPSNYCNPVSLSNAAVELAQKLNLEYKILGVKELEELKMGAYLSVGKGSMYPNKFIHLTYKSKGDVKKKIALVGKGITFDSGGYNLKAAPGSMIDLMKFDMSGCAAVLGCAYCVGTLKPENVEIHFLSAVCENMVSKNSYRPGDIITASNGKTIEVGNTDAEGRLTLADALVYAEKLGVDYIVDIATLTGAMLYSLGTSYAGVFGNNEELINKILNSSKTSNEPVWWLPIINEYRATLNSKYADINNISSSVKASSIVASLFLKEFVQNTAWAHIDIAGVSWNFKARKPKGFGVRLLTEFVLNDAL
Kind of test: P. falciparum M17LAP inhibitors, primary screen, biochemical, fluorogenic H-Leu-NHMec substrate, 1536-well (AID 1619). The test is classed as functional.

Test [1] has as its target FAD-linked sulfhydryl oxidase ALR (Homo sapiens, UniProt P55789). Kind of test: inhibitors of human ALR sulfhydryl oxidase, dose response, biochemical, H2O2 detection, luminescence, cherry-pick (AID 493248).
The subject of test [2] is BJ. Briefly: cytotoxicity toward BJ-TERT-LT-ST fibroblasts, dose response, cell-based, RAS-independent, luminescence (AID 1935).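 Further: BJ fibroblasts immortalized with TERT plus LT and ST oncogenes.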 Type of test: functional. The following applies: Homo sapiens.
For test [3], the system named is BJ. Briefly: cytotoxicity toward BJ-TERT fibroblasts, dose response, cell-based, RAS-independent, luminescence (AID 1933). The following applies: Homo sapiens. Type of test: functional.
The nature of test [4]: cytotoxicity toward DRD oncogenic fibroblasts, dose response, cell-based, non-viral oncogenic, luminescence (AID 1934). Particulars: Homo sapiens. The test is classed as functional.
The test system of test [5] is BJ. Briefly: cells. The test is classed as functional, cell-based. The following applies: Homo sapiens.
Test [6] deals with T2, RNA-binding protein pos-1 (Caenorhabditis elegans, UniProt G5EF15).
T2 sequence (G5EF15 whole entry): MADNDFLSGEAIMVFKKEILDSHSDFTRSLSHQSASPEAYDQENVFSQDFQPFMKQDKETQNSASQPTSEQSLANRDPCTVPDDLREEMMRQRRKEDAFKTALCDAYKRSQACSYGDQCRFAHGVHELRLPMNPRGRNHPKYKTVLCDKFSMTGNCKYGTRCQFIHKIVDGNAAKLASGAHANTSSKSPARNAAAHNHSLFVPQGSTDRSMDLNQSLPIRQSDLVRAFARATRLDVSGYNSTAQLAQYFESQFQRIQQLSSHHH
Kind of test: inhibitors of POS-1/mex-3 RNA binding, dose response, biochemical, fluorescence polarization (AID 1964).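 Further: purified POS-1 fused to maltose binding protein made in E. coli; potency of compounds blocking POS-1 binding to fluorescent RNA.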

The target in another test is T3, Streptokinase A (Streptococcus pyogenes serotype M1, UniProt P10520).
T3 sequence (P10520 whole entry): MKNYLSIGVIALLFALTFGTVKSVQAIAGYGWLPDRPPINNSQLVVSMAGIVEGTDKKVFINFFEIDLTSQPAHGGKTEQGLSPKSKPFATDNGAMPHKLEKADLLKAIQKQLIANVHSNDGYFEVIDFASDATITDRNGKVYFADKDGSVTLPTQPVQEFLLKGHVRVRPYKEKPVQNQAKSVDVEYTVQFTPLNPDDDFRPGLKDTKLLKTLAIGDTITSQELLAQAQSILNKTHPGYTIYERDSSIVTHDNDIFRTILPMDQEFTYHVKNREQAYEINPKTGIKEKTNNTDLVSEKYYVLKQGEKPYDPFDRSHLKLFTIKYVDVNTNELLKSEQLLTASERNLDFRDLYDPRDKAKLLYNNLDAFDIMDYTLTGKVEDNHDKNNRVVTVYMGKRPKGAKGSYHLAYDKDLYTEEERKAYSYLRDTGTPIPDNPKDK
Briefly: S. pyogenes streptokinase expression inhibitors, potency, dose response, plasminogen activation absorbance, OD405 (AID 1914).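 Further: secreted streptokinase activity via plasminogen activation per viability signal from cell pellet.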 Type of test: functional, Streptococcus pyogenes M1 GAS.

In the next test the test system is Streptococcus. Kind of test: Group A Streptococcus viability loss, dose response, counter-screen for streptokinase expression inhibitor project, luminescence, BacTiterGlo (AID 1915).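 Further: potency for reduction of bacterial viability or growth.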 The test is classed as functional, organism-based.
For a further test, the target named is Genome polyprotein (dengue virus type 2, UniProt P29990). Briefly: Dengue-2 NS5 methyltransferase inhibitors, primary screen, biochemical, confirmation dose response (AID 588689). Type of test: functional.
In test [7] the target is T4, Zinc finger protein mex-5 (Caenorhabditis elegans, UniProt Q9XUB2).
T4 sequence (Q9XUB2 whole entry): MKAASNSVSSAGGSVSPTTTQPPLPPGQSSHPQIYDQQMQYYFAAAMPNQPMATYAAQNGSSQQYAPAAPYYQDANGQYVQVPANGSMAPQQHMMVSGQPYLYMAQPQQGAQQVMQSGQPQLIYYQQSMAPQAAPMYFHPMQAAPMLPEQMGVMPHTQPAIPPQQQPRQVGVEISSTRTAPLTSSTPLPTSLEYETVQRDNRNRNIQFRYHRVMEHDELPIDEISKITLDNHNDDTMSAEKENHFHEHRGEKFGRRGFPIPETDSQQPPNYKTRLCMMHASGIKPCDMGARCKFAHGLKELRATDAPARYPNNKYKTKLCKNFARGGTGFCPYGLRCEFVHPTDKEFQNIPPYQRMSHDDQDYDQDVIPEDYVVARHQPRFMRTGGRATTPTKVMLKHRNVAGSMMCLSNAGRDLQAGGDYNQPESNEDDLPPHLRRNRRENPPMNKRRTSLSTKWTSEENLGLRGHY
Briefly: MEX-5/TCR-2 RNA interaction inhibitors, dose response, biochemical, C. elegans, fluorescence polarization (AID 1960).

Test [8] concerns Streptococcus sp. 'group A'. Kind of test: growth inhibition of control SK(-) GAS strain, dose response, counter-screen for streptokinase expression inhibitor project, luminescence, kanamycin, BacTiterGlo, confirmation (AID 1900). Type of test: functional, organism-based.
In test [9] the target is T5, High affinity choline transporter 1 (Homo sapiens, UniProt Q9GZV3).
T5 sequence (Q9GZV3 whole entry): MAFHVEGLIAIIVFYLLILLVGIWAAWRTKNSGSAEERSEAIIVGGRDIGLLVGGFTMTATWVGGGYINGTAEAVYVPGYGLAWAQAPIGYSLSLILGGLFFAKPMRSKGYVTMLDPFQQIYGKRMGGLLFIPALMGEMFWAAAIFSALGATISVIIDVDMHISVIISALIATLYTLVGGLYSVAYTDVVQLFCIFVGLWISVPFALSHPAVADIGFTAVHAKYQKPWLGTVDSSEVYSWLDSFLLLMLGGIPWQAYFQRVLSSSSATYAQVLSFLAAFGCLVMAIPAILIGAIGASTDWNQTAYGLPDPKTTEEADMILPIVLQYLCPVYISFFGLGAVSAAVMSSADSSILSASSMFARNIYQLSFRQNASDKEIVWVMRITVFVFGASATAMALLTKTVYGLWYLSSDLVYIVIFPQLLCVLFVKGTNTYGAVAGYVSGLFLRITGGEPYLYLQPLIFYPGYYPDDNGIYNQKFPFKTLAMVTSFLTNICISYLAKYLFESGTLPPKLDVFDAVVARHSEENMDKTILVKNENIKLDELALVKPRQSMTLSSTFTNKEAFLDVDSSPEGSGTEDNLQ
Briefly: CHT inhibitors, dose response, cell-based, 5-point CRC, membrane potential dye (AID 504840). Type of test: functional.

The next test addresses T6, Protein skinhead-1 (Caenorhabditis elegans, UniProt P34707).
T6 sequence (P34707 whole entry): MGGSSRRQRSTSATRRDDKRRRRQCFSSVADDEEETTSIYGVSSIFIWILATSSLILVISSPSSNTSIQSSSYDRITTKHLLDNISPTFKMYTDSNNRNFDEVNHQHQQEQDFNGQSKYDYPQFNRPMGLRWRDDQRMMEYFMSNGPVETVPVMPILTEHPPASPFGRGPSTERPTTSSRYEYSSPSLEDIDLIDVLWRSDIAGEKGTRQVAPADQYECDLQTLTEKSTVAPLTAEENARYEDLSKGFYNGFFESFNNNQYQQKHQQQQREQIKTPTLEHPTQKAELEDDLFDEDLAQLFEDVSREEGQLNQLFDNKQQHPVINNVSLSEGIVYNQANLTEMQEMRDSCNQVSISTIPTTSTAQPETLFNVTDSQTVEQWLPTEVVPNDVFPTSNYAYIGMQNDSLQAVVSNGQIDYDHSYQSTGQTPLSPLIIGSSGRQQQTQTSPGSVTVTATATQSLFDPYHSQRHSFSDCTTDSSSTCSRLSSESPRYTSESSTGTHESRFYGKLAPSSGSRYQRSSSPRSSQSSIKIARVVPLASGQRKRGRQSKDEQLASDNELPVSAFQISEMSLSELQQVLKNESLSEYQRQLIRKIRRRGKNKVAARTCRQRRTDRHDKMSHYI
The test is classed as functional.

Another test addresses Cytochrome P450 2D6 (Homo sapiens, UniProt P10635).

Sequence of Genome polyprotein (P29990 2492-3391 limits assumed): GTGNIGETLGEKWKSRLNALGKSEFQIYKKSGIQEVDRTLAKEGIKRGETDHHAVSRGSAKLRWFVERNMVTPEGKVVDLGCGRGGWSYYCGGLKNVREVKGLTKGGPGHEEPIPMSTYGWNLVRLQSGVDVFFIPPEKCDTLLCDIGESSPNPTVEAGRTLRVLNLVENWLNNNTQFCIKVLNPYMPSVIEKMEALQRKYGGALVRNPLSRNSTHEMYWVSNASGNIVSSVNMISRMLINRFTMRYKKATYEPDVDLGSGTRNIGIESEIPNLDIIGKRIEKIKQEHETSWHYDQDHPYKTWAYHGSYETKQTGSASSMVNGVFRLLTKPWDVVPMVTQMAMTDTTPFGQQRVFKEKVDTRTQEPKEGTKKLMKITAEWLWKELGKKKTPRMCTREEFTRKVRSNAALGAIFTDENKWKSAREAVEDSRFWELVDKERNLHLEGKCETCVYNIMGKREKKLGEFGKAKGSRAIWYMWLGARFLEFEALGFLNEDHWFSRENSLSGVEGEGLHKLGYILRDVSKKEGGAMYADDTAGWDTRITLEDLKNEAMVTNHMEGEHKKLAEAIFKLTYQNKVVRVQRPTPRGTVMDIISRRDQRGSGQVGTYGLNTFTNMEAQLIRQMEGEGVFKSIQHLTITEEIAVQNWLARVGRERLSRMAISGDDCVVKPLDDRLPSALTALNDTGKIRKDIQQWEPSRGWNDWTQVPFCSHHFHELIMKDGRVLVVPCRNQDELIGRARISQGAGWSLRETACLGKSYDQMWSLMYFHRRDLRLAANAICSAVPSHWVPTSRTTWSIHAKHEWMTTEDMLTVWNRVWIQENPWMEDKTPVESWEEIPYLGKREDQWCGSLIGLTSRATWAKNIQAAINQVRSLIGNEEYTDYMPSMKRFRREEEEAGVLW
Sequence of FAD-linked sulfhydryl oxidase ALR (P55789 whole entry): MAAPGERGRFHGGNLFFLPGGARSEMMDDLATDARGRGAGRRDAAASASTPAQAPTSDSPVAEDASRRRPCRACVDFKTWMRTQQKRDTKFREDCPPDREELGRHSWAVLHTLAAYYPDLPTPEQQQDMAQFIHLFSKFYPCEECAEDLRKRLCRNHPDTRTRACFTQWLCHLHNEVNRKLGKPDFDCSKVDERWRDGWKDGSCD
Sequence of Cytochrome P450 2D6 (P10635 whole entry): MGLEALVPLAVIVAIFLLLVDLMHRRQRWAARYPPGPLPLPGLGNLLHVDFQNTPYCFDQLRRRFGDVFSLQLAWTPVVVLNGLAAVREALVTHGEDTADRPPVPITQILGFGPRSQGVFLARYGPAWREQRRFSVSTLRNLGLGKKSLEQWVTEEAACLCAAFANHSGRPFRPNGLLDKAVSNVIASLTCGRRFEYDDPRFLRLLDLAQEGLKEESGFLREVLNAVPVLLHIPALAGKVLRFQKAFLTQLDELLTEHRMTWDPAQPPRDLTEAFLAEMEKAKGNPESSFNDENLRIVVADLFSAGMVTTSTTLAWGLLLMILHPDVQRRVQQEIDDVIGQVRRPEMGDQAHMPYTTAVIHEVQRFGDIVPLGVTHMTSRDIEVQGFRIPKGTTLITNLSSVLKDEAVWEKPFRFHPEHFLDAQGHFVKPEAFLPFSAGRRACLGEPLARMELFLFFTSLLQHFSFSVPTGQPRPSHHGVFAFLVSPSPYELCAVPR

With `COC(=O)c1ccccc1NC(=O)CN1C(=O)c2ccccc2S1(=O)=O`, the IC50 on Leucine aminopeptidase is 18.1 µM (active).
Regarding `COc1ccc(-c2cc(-c3ccc(N)cc3)nc(N)c2C#N)cc1OC`, in test [1], the AC50 is 0.794 µM (active).
As to `COc1ccc(S(=O)(=O)N2CCN=C2SCc2cccnc2)cc1`, the AC50 in [1] is 0.243 µM (active).
Regarding `COc1cc(C(=O)NCC(=O)N2CCN(S(=O)(=O)c3cc(C)ccc3C)CC2)cc(OC)c1OC`, the EC50 in the test on BJ [2] was 16.3 µM (active); in the test on BJ [3], 13.4 µM (active); in test [4] it was 14.5 µM (active); in the test on BJ [5] it was 31.8 µM (active).
In the case of `COc1ccccc1C(=O)N1CCN=C1SCc1cccnc1`, the AC50 in test [1] is 0.009 µM (active).
Regarding `CSC1=NSC2=NC(=O)/C(=C\c3c[nH]c4ccccc34)C(=N)N12`, the 50% effective concentration (EC50) was > 300 µM (inconclusive) in test [6]; > 150 µM (not active) at Streptokinase A; > 150 µM (not active) in the test on Streptococcus; 17.9 µM (inconclusive) in [7]; 1.95 µM (active) in test [8]. Also, on Genome polyprotein, the IC50 was > 100 µM (active).
For the molecule `Cc1ccc(NC(=O)CSc2nnc(NC(=O)CN3CCOCC3)s2)cc1`, the IC50 at Leucine aminopeptidase is 9.15 µM (active).
As for `COc1cccc(/C=C2/SC(=O)N(CC(=O)N3CCc4ccccc4C3)C2=O)c1OCC(=O)O`, the 50% inhibitory concentration (IC50) at Leucine aminopeptidase was 16.2 µM (active).
As to `Oc1cc(-c2ccccc2)nc2nc(COc3ccccc3)nn12`, the IC50 at Leucine aminopeptidase is 7.61 µM (active).
For `CCc1cc2c(N3CCN(c4nnc(CC)s4)CC3)ncnc2s1`, the IC50 in test [9] is 3.63 µM (active).
With `Cc1cccc(C(=O)Nc2nnc(-c3ccncc3)o2)c1`, the AC50 in [1] was 2.35 µM (active).
`COc1ccc(-c2cc(=O)oc3cc(OC(C)C(=O)O)ccc23)cc1` (centres undefined): the IC50 on Leucine aminopeptidase is 43.9 µM (active).
Consider `O=C(CSc1nnc(NC2CCCCC2)s1)NN1C(=O)NC2(CCCCC2)C1=O`, for which the concentration for half-maximal inhibition (IC50) at Leucine aminopeptidase was 10.5 µM (active).
For `CCOc1ccc(/C=C/c2nc(O)nc(O)c2[N+](=O)[O-])cc1`, the IC50 on Genome polyprotein is 45.9 µM (active).
Take `Cc1ccc(N2NC(=O)/C(=C/c3ccc(-c4ccc(Cl)c(C(=O)O)c4)o3)C2=O)cc1C`: the half-maximal inhibitory concentration (IC50) on Genome polyprotein is 79.1 µM (active).
Turning to `CCCc1cc(C(=O)NN=C(S)NC(C)c2ccccc2)cs1` (centres undefined), in [9], the 50% inhibitory concentration (IC50) is 12.6 µM (active).
As for `Cc1cccc(-c2cnn(-c3cccc([N+](=O)[O-])c3)c2N)c1`, in [1], the AC50 was 0.287 µM (active).
With `COc1ccc(/C=C2/C(=O)NC(=O)N(c3ccccc3)C2=O)cc1CN1C(=O)c2ccccc2C1=O`, on Genome polyprotein, the 50% inhibitory concentration (IC50) is 73.9 µM (active).
As for `Cc1ccc(C(=O)Nc2ncc([N+](=O)[O-])s2)cc1`, the IC50 at Protein skinhead-1 was > 100 µM (inactive); in [9] it was 10.5 µM (active).
As for `Nc1nn(-c2ccccc2)c(N)c1N=Nc1cccc(F)c1`, the EC50 in the test on BJ [2] was 36.7 µM (inconclusive); in the test with BJ [3] it was 3.92 µM (active); in test [4], 1.94 µM (active); with BJ [5], 124 µM (active).
For the molecule `CCN(CC)c1ccc2c(c1)OC(N)=C(C#N)C2c1cccnc1` (centres undefined), at Cytochrome P450 2D6, the AC50 was 15.8 µM (inconclusive). Moreover, the EC50 in the test with BJ [2] is 0.396 µM (inconclusive); in the test with BJ [3], 0.368 µM (inconclusive); in test [4], 0.347 µM (active); in the test with BJ [5] it was 0.341 µM (inconclusive).
On to `O=C(O)CCc1ccc(-c2ccc(Cl)cc2)o1`, for which the AC50 in [1] is 2.22 µM (active).
Take `CCN(CC)S(=O)(=O)c1cccc(-c2csc(C)n2)c1`: the AC50 in [1] was 4.41 µM (active).
Take `COc1ccc(C(=O)N(C)C2CCCc3ccccc32)cc1OC1CCN(C(C)C)CC1` (centres undefined): the concentration for half-maximal inhibition (IC50) in [9] was 12.6 µM (active).
As for `CC1(C)c2[nH]c3ccccc3c2C[C@@H]2C(=O)N(Cc3ccccc3)C(=O)N21`, the IC50 in test [9] is 12.9 µM (active).
For the molecule `O=C(CCNS(=O)(=O)c1ccccc1C(F)(F)F)N1CCN(c2ccccc2O)CC1`, in [1], the AC50 was 5.51 µM (active).
With `COc1ccc(C(=O)N2CCCCCC2)cc1OC1CCN(C(C)C)CC1`, the IC50 in test [9] is 13.9 µM (active).
Consider `COc1cc(/C=N/c2cccc(C)c2)c(O)c([N+](=O)[O-])c1`, for which the IC50 in test [9] is 13.2 µM (active).
